Results reported in PMC7827406, “Structure–Activity Relationship (SAR) Study of Spautin-1 to Entail the Discovery of Novel NEK4 Inhibitors” (International Journal of Molecular Sciences, 2021).
Like-named read-outs stand apart in the source and are kept apart here.

Legend:
Experiment in all cases: biochemical
Set-up in all cases: Eurofins KinaseProfiler full panel at Km ATP, residual kinase activity (%) relative to DMSO
Abl(Y253F)(h) = target: T1, Abl(Y253F)(h) (Homo sapiens, UniProt P00519, Y253F)
T1 construct: gene ABL1
How it was run: (§1)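 Compounds screened at 10 µM in radiometric kinase activity assays at Km ATP, reported as remaining kinase activity (%). A KINOMEscan competition-binding screen at 10 µM measured DNA-tagged kinase retained on immobilized active-site ligand by qPCR.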

CDK2/cyclinA(h) = CDK2/cyclinA(h) (Homo sapiens, UniProt P24941)
How it was run: as §1

CaMKIV(h) = target: T2, CaMKIV(h) (Homo sapiens, UniProt Q16566)
T2 construct: gene CAMK4
T2 sequence (Q16566 1-473): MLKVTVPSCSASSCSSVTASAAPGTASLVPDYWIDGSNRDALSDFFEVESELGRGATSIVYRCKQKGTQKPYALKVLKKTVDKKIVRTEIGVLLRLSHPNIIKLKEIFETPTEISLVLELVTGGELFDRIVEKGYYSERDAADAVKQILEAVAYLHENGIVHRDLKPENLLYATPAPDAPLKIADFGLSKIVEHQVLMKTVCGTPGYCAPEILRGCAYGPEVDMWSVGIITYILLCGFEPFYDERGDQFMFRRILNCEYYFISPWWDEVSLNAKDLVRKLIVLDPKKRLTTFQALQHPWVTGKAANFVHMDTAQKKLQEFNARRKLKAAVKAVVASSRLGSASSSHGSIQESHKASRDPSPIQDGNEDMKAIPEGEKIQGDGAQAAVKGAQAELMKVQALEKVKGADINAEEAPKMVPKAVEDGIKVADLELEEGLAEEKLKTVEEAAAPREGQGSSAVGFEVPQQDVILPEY
How it was run: as §1

EphB1(h) = target: T3, EphB1(h) (Homo sapiens, UniProt P54762)
T3 sequence (P54762 1-984): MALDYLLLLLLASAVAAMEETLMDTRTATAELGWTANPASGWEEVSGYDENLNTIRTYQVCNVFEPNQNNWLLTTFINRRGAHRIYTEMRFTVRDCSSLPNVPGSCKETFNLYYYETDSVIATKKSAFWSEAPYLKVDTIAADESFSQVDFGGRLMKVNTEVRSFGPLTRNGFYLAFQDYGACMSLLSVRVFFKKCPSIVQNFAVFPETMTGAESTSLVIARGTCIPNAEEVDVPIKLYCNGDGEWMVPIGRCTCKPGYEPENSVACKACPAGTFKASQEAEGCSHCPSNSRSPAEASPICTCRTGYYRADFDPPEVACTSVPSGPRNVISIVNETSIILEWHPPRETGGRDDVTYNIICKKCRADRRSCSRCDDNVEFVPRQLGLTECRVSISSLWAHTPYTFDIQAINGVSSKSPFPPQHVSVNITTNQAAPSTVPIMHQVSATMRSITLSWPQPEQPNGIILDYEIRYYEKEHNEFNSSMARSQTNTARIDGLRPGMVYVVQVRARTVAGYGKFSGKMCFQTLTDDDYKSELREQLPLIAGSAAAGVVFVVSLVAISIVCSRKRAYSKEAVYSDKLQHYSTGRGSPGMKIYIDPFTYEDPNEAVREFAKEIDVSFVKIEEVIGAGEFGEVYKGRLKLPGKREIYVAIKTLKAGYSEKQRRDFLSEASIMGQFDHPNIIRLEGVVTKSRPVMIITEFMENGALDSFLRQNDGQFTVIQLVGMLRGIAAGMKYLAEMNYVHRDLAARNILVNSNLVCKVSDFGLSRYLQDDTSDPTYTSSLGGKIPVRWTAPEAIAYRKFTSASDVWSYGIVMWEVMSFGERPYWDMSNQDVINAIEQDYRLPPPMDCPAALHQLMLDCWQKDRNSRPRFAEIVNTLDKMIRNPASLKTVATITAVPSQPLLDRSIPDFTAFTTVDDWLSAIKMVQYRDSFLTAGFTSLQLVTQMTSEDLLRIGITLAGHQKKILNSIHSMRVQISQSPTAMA
How it was run: as §1

MSSK1(h) = target: T4, MSSK1(h) (Homo sapiens, UniProt Q9UPE1)
T4 construct: gene SRPK3
How it was run: as §1

PDGFRα(D842V)(h) = target: T5, PDGFRα(D842V)(h) (Homo sapiens, UniProt P16234, D842V)
T5 construct: gene PDGFRA
How it was run: as §1

Tie2 (h) = target: T6, Tie2 (h) (Homo sapiens, UniProt Q02763)
T6 construct: gene TEK
How it was run: as §1

WNK3(h) = WNK3(h) (Homo sapiens, UniProt Q9BYP7)
How it was run: as §1

[1] = read-out: Residual activity (%) 5ay
[2] = read-out: Residual activity (%) Spautin-1 5aa
[3] = read-out: Residual activity (%) 5at
[4] = read-out: Residual activity (%) 5as

T5 sequence (P16234 whole entry D842V): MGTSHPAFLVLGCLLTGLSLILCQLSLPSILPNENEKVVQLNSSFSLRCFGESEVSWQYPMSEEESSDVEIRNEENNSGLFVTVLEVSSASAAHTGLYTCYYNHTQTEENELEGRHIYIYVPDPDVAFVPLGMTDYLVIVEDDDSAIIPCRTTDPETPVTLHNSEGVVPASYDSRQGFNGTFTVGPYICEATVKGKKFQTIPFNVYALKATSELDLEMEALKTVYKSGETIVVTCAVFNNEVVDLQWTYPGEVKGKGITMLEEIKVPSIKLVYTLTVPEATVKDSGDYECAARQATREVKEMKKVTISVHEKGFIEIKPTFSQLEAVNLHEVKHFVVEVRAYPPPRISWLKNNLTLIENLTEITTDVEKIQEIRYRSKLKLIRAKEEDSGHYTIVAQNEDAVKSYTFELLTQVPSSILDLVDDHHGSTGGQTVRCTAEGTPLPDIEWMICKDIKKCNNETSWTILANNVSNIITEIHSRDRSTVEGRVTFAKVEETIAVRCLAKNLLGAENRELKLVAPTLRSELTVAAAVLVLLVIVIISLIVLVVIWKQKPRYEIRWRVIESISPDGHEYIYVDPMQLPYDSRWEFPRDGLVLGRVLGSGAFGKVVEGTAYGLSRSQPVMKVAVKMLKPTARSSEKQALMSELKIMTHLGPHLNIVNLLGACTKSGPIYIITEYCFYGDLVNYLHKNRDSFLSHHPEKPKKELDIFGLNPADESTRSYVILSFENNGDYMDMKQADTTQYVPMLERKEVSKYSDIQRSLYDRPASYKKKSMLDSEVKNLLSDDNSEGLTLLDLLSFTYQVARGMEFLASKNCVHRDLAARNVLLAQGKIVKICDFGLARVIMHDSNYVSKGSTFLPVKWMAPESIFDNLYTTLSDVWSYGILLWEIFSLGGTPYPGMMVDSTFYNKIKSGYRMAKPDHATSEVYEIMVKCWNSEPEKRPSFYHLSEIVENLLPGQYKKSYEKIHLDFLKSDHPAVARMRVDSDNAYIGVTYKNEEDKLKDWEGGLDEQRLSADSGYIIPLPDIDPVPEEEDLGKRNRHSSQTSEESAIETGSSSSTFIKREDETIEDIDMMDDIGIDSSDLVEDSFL
Sequence of WNK3(h) (Q9BYP7 whole entry): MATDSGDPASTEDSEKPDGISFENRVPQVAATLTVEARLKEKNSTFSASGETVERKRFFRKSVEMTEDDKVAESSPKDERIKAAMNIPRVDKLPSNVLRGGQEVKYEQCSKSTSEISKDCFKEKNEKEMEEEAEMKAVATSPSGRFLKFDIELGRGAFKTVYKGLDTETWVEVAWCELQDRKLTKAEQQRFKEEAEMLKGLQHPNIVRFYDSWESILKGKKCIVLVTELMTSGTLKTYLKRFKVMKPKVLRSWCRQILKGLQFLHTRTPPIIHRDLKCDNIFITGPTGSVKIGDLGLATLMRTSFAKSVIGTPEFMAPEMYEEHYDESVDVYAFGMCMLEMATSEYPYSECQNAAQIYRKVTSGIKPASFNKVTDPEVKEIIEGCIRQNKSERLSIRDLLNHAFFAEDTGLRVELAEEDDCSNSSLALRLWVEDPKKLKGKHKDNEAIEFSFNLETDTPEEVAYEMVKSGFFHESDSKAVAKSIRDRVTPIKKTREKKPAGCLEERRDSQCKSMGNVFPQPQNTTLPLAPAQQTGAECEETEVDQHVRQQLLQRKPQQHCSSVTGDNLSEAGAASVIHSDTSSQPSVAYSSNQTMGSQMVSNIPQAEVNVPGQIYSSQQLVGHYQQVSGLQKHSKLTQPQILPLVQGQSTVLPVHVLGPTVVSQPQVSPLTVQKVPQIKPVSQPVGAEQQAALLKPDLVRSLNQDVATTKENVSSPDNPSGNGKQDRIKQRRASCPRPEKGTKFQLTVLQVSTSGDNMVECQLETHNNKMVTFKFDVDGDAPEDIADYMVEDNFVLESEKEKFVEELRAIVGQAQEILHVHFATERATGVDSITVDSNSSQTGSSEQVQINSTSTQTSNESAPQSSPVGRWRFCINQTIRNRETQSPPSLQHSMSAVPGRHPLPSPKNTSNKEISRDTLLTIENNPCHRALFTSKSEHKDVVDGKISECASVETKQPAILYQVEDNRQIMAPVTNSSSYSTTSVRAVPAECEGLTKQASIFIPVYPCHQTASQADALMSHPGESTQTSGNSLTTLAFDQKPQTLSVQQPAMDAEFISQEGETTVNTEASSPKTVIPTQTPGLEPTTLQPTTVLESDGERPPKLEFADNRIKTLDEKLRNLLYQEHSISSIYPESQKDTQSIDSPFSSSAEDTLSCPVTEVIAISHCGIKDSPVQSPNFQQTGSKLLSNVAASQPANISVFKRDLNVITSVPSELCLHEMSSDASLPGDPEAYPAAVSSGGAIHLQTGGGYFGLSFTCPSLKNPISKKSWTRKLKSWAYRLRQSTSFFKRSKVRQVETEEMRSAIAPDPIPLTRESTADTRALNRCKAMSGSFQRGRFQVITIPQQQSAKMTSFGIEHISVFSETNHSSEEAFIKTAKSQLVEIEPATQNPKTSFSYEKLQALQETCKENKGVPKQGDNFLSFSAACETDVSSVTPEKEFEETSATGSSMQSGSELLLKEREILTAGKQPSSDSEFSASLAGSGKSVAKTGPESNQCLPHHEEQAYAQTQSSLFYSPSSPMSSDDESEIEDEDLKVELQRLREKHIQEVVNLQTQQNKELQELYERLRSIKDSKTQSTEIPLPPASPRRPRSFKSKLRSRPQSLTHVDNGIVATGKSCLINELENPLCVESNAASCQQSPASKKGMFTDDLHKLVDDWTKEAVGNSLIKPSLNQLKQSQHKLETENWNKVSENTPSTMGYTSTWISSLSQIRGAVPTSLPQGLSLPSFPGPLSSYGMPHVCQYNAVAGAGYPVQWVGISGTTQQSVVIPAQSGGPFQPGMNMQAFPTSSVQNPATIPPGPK
T4 sequence (Q9UPE1 whole entry): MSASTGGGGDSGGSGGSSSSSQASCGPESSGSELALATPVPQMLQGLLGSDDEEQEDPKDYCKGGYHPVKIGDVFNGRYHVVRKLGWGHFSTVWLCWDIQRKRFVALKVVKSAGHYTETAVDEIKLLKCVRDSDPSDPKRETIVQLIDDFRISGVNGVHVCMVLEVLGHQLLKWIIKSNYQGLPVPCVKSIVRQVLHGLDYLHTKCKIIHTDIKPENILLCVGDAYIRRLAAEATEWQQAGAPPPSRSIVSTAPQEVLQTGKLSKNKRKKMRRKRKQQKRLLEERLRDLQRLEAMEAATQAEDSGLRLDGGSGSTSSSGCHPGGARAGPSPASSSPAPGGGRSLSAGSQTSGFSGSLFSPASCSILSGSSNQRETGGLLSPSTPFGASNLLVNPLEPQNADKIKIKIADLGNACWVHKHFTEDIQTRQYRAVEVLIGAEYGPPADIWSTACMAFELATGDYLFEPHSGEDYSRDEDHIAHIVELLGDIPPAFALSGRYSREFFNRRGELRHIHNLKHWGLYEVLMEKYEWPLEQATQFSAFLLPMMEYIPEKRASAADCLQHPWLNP
T6 sequence (Q02763 whole entry): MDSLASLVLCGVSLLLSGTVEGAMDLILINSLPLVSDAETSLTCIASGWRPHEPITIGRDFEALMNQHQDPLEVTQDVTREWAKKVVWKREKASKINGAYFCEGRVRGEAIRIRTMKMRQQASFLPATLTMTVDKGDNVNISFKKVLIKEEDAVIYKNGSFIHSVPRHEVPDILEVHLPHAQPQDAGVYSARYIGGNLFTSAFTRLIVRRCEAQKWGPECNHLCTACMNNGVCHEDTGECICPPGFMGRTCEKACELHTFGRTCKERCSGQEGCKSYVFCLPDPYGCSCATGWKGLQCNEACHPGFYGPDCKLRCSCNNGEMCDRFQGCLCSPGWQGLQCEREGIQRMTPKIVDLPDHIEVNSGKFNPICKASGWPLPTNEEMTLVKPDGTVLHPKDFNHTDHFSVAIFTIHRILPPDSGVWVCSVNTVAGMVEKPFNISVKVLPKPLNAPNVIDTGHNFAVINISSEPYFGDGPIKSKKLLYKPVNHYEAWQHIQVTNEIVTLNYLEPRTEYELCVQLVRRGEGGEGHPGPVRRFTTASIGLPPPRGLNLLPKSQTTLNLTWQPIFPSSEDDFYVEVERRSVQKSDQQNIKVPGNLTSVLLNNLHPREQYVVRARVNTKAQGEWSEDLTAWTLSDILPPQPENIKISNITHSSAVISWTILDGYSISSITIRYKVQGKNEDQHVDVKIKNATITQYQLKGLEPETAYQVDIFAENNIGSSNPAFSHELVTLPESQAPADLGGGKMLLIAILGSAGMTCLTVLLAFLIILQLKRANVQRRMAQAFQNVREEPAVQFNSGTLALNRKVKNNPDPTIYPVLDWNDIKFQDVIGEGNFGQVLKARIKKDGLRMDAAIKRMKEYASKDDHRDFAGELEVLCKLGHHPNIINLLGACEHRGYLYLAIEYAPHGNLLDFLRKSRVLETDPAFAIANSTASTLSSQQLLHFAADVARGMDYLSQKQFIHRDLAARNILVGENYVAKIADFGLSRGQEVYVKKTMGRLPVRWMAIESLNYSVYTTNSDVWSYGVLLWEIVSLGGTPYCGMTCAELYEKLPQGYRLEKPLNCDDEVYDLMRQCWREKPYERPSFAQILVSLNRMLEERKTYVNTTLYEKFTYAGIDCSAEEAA

`COc1ccc2ncnc(Nc3cccc(F)c3)c2c1` [5ay, N-(3-Fluorophenyl)-6-Methoxy-4-Quinazolinamine] gave a remaining activity at 10 µM (Abl(Y253F)(h); [1]) of 66%, a remaining activity at 10 µM (CDK2/cyclinA(h); [1]) of 83% and a remaining activity at 10 µM (CaMKIV(h); [1]) of 68%. It also gave a remaining activity at 10 µM (EphB1(h); [1]) of 88%, a remaining activity at 10 µM (MSSK1(h); [1]) of 81% and a remaining activity at 10 µM (PDGFRα(D842V)(h); [1]) of 50%. It also gave a remaining activity at 10 µM (Tie2 (h); [1]) of 94% and a remaining activity at 10 µM (WNK3(h); [1]) of 104%.
For `Fc1ccc(CNc2ncnc3ccc(F)cc23)cc1` [5aa, 6-Fluoro-N-(4-fluorobenzyl)-4-Quinazolinamine], the remaining activity at 10 µM (Abl(Y253F)(h); [2]) was 106%, the remaining activity at 10 µM (CDK2/cyclinA(h); [2]) was 95% and the remaining activity at 10 µM (CaMKIV(h); [2]) was 81%. The remaining activity at 10 µM (EphB1(h); [2]) was 84%, the remaining activity at 10 µM (MSSK1(h); [2]) was 85% and the remaining activity at 10 µM (PDGFRα(D842V)(h); [2]) was 114%. It also gave a remaining activity at 10 µM (Tie2 (h); [2]) of 104% and a remaining activity at 10 µM (WNK3(h); [2]) of 90%.
For `Fc1ccc2ncnc(NCCc3ccc(Cl)cc3)c2c1` [5at, N-[2-(4-Chlorophenyl)Ethyl]-6-Fluoro-4-Quinazolinamine], the remaining activity at 10 µM (Abl(Y253F)(h); [3]) was 71%, the remaining activity at 10 µM (CDK2/cyclinA(h); [3]) was 86% and the remaining activity at 10 µM (CaMKIV(h); [3]) was 81%. It also gave a remaining activity at 10 µM (EphB1(h); [3]) of 95%, a remaining activity at 10 µM (MSSK1(h); [3]) of 95% and a remaining activity at 10 µM (PDGFRα(D842V)(h); [3]) of 86%. It also gave a remaining activity at 10 µM (Tie2 (h); [3]) of 75% and a remaining activity at 10 µM (WNK3(h); [3]) of 86%.
Compound `Fc1ccc(CCNc2ncnc3ccc(F)cc23)cc1` [5as, 6-Fluoro-N-[2-(4-Fluorophenyl)Ethyl]-4-Quinazolinamine] has a remaining activity at 10 µM (Abl(Y253F)(h); [4]) of 91%, a remaining activity at 10 µM (CDK2/cyclinA(h); [4]) of 82% and a remaining activity at 10 µM (CaMKIV(h); [4]) of 75%. The remaining activity at 10 µM (EphB1(h); [4]) was 90%, the remaining activity at 10 µM (MSSK1(h); [4]) was 91% and the remaining activity at 10 µM (PDGFRα(D842V)(h); [4]) was 92%. The remaining activity at 10 µM (Tie2 (h); [4]) was 92% and the remaining activity at 10 µM (WNK3(h); [4]) was 98%.
